{
  "source": "patent EP4140986A1",
  "about": "“PYRAZINE COMPOUNDS FOR THE CONTROL OF INVERTEBRATE PESTS” (BASF SE, priority 2021, dated 2023)",
  "type_in_all_cases": "in vivo",
  "key": {"[1]": {"system": "boll weevil (Anthonomus grandis)", "experiment": "Boll weevil test, insect diet with eggs in 96-well microtiter plates", "settings": "120 h, egg and larval mortality, 5 days, read-out: mortality in comparison with untreated controls", "method": "For evaluating control of boll weevil (Anthonomus grandis), the test unit consisted of 96-well-microtiter plates containing an insect diet and 5-10 A. grandis eggs.\nThe compounds were formulated using a solution containing 75% v/v water and 25% v/v DMSO. Different concentrations of formulated compounds were sprayed onto the insect diet at 5 µl, using a custom-built micro atomizer, at two replications.\nAfter application, microtiter plates were incubated at about 25 ± 1°C and about 75 ± 5 % relative humidity for 5 days. Egg and larval mortality was then visually assessed."}, "[2]": {"system": "green peach aphid (Myzus persicae)", "experiment": "Green Peach Aphid systemic test, artificial diet in 96-well microtiter plates", "settings": "72 h, adult aphids on treated diet, 3 days, read-out: mortality in comparison with untreated controls", "description": "For evaluating control of green peach aphid (Myzus persicae) through systemic means, the test unit consisted of 96-well-microtiter plates containing liquid artificial diet under an artificial mem brane.\nThe compounds were formulated using a solution containing 75% v/v water and 25% v/v DMSO. Different concentrations of formulated compounds were pipetted into the aphid diet, using a custom built pipetter, at two replications.\nAfter application, 5 - 8 adult aphids were placed on the artificial membrane inside the microtiter plate wells. The aphids were then allowed to suck on the treated aphid diet and incubated at about 23 ± 1°C and about 50 ± 5 % relative humidity for 3 days. Aphid mortality and fecundity was then visually assessed."}, "[3]": {"system": "tobacco budworm (Heliothis virescens)", "experiment": "Tobacco budworm test, insect diet with eggs in 96-well microtiter plates", "settings": "120 h, egg and larval mortality, 5 days, read-out: mortality in comparison with untreated controls", "method": "For evaluating control of tobacco budworm (Heliothis virescens), the test unit consisted of 96-well-microtiter plates containing an insect diet and 15-25 H. virescens eggs.\nThe compounds were formulated using a solution containing 75% v/v water and 25% v/v DMSO. Different concentrations of formulated compounds were sprayed onto the insect diet at 10 µl using a custom-built micro atomizer, at two replications.\nAfter application, microtiter plates were incubated at about 28 ± 1°C and about 80 ± 5 % relative humidity for 5 days. Egg and larval mortality was then visually assessed."}, "[4]": {"system": "Southern armyworm (Spodoptera eridania), 2nd instar larvae", "experiment": "Southern armyworm foliar spray test on Lima bean plants", "settings": "2nd instar larvae on sprayed Lima bean plants, 4 days after treatment", "method": "The active compounds were formulated by a Tecan liquid handler in 100% cyclohexanone as a 10,000-ppm solution supplied in tubes. The 10,000-ppm solution was serially diluted in 100% cyclohexanone to make interim solutions. These served as stock solutions for which final dilutions were made by the Tecan in 50% acetone:50% water (v/v) into 10 or 20ml glass vials. A non-ionic surfactant (Kinetic®) was included in the solution at a volume of 0.01% (v/v). The vials were then inserted into an automated electrostatic sprayer equipped with an atomizing nozzle for application to plants/insects. Lima bean plants (variety Sieva) were grown 2 plants to a pot and selected for treatment at the 1st true leaf stage. Test solutions were sprayed onto the foliage by an auto-mated electrostatic plant sprayer equipped with an atomizing spray nozzle. The plants were dried in the sprayer fume hood and then removed from the sprayer. Each pot was placed into perforated plastic bags with a zip closure. Ten to 11 armyworm larvae were placed into the bag and the bags zipped closed. Test plants were maintained in a growth room at about 25°C and about 20-40% relative humidity for 4 days, avoiding direct exposure to fluorescent light (14:10 light:dark photoperiod) to prevent trapping of heat inside the bags. Mortality and reduced feeding were assessed 4 days after treatment, compared to untreated control plants."}, "[5]": {"system": "yellow fever mosquito (Aedes aegypti)", "experiment": "whole plant or invertebrate", "settings": "48 h, larval mortality, 2 days, read-out: mortality in comparison with untreated controls", "method": "For evaluating control of yellow fever mosquito (Aedes aegypti) the test unit consisted of 96-well-microtiter plates containing 200µl of tap water per well and 5-15 freshly hatched A. aegypti larvae.\nThe active compounds were formulated using a solution containing 75% (v/v) water and 25% (v/v) DMSO. Different concentrations of formulated compounds or mixtures were sprayed onto the insect diet at 2.5µl, using a custom-built micro atomizer, at two replications.\nAfter application, microtiter plates were incubated at 28 ± 1°C, 80 ± 5 % RH for 2 days. Larval mortality was then visually assessed."}},
  "data": [
    {"smiles": "CON=C(C)c1nccnc1C(C)NC(=O)c1cc(C(F)(F)F)cc(C(F)(F)F)c1", "note": "(stereo not drawn) [Compound I-1, N-[1-[3-[N-methoxy-C-methyl-carbonimidoyl]pyrazin-2-yl]ethyl]-3,5-bis(trifluoromethyl)benzamide]", "values": [
      {"measurement": "mortality at 2500 ppm", "setting": "[1]", "result": "≥ 75", "unit": "%"},
      {"measurement": "mortality at 2500 ppm", "setting": "[2]", "result": "≥ 75", "unit": "%"},
      {"measurement": "mortality at 2500 ppm", "setting": "[3]", "result": "≥ 75", "unit": "%"},
      {"measurement": "mortality at 300 ppm", "setting": "[4]; Spodoptera eridania, foliar, 96 h, read-out: mortality in comparison with untreated controls", "result": "≥ 75", "unit": "%"},
      {"measurement": "mortality at 2500 ppm", "setting": "[5]", "result": "≥ 75", "unit": "%"}
    ]},
    {"smiles": "CON=C(N)c1nccnc1C(C)N(CC1CC1)C(=O)c1cc(C(F)(F)F)cc(C(F)(F)F)c1", "note": "(stereo not drawn) [Compound I-4]", "values": [
      {"measurement": "mortality in comparison with untreated controls", "setting": "[4]; 300 ppm", "result": "at least 75%"}
    ]}
  ]
}
